Measurements taken from ChEMBL document CHEMBL1201862, “PubChem BioAssay data set” (2004).
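Each compound was tested at five concentrations against cells in 96-well plates for 48 hours. GI50 marks 50% less growth.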 Active and inactive are the calls of the source. No stated cut-off is given here; in the data, active = GI50 up to about 1.1 µM and inactive = higher.

Tests used:
Test in all cases: NCI-60 cell line screen, 48 h
K562 = test system: K562
SK-OV-3 = test system: SK-OV-3
M14 = test system: M14
RXF 393 = test system: RXF 393
HOP-92 = test system: HOP-92
OVCAR-8 = test system: OVCAR-8
PC-3 = test system: PC-3
SR = test system: SR
NCI-H460 = test system: NCI-H460
HOP-62 = test system: HOP-62
HL-60 = test system: HL-60
HCT-116 = test system: HCT-116
MOLT-4 = test system: MOLT-4
MDA-MB-231 = test system: MDA-MB-231
HCC 2998 = test system: HCC 2998
SF-539 = test system: SF-539
OVCAR-4 = test system: OVCAR-4
HT-29 = test system: HT-29
T47D = test system: T47D
NCI-H522 = test system: NCI-H522

Row | Structure (SMILES) | GI50 (K562) | GI50 (SK-OV-3) | GI50 (M14) | GI50 (RXF 393) | GI50 (HOP-92) | GI50 (OVCAR-8) | GI50 (PC-3) | GI50 (SR) | GI50 (NCI-H460) | GI50 (HOP-62) | GI50 (HL-60) | GI50 (HCT-116) | GI50 (MOLT-4) | GI50 (MDA-MB-231) | GI50 (HCC 2998) | GI50 (SF-539) | GI50 (OVCAR-4) | GI50 (HT-29) | GI50 (T47D) | GI50 (NCI-H522)
1 | COc1ccc(/C=C2\CCc3cc(OC)c(OC)cc3C2=O)cc1 | > 10 µM (inactive) | > 10 µM (inactive) | > 10 µM (inactive) | > 10 µM (inactive) | > 10 µM (inactive) | > 10 µM (inactive) | > 10 µM (inactive) | > 10 µM (inactive) | > 10 µM (inactive) | > 10 µM (inactive) | 9.25 µM (inactive) | > 10 µM (inactive) | > 10 µM (inactive) | > 10 µM (inactive) | > 10 µM (inactive) | > 10 µM (inactive) | > 10 µM (inactive) | > 10 µM (inactive) | > 10 µM (inactive) | –
2 | Nc1c2cc3ccc2nc2ccc(cc12)OCCOCCOCCOCCOCCOCCO3 | > 10 µM (inactive) | > 10 µM (inactive) | > 10 µM (inactive) | > 10 µM (inactive) | > 10 µM (inactive) | > 10 µM (inactive) | > 10 µM (inactive) | > 10 µM (inactive) | > 10 µM (inactive) | > 10 µM (inactive) | > 10 µM (inactive) | > 10 µM (inactive) | > 10 µM (inactive) | > 10 µM (inactive) | > 10 µM (inactive) | > 10 µM (inactive) | > 10 µM (inactive) | > 10 µM (inactive) | > 10 µM (inactive) | > 10 µM (inactive)
3 | Cc1ccc(S(=O)(=O)SC(C)(C)C)cc1 | 19.9 µM (inactive) | > 100 µM (inactive) | 31.6 µM (inactive) | – | 63 µM (inactive) | 21.3 µM (inactive) | > 10 µM (inactive) | 12.2 µM (inactive) | > 100 µM (inactive) | > 60.3 µM (inactive) | 18 µM (inactive) | 17.6 µM (inactive) | 18.2 µM (inactive) | 24.7 µM (inactive) | > 43.5 µM (inactive) | 32.1 µM (inactive) | 22.2 µM (inactive) | 13.1 µM (inactive) | > 100 µM (inactive) | 14.7 µM (inactive)
4 | COc1ccc(C(=O)CC(c2ccccc2)[C@H]2C(c3ccc(OC)cc3)=Nc3c(nc(SC)n(C)c3=O)NC2c2ccccc2)cc1 (some centres not stated) | > 100 µM (inactive) | > 100 µM (inactive) | > 100 µM (inactive) | > 100 µM (inactive) | > 100 µM (inactive) | – | > 100 µM (inactive) | > 100 µM (inactive) | > 100 µM (inactive) | > 100 µM (inactive) | – | 89.7 µM (inactive) | > 100 µM (inactive) | > 100 µM (inactive) | > 100 µM (inactive) | > 100 µM (inactive) | – | > 100 µM (inactive) | > 100 µM (inactive) | > 100 µM (inactive)
5 | CCCCCCCCCC[C@H](O)[C@H]1CC[C@H]([C@H]2CC[C@H]([C@H](O)CC[C@H](O)CCCCCCC[C@@H](O)CC3=C[C@H](C)OC3=O)O2)O1 | 2.96 µM (inactive) | – | 46.9 µM (inactive) | 40 µM (inactive) | 6.93 µM (inactive) | 85.7 µM (inactive) | 5.7 µM (inactive) | 9.14 µM (inactive) | 1.46 µM (inactive) | > 10 µM (inactive) | 2.51 µM (inactive) | < 0.01 µM (active) | 2.96 µM (inactive) | > 10 µM (inactive) | > 100 µM (inactive) | 24 µM (inactive) | 41.4 µM (inactive) | > 10 µM (inactive) | 5.25 µM (inactive) | 10.7 µM (inactive)
6 | N#C[BH2-][n+]1cn(C2CC(OP(=O)(O)OCC3OC(n4cnc5c(=O)[nH]c(N)nc54)CC3O)C(CO)O2)c2nc(N)[nH]c(=O)c21 (configuration not stated) | 55.5 µM (inactive) | > 100 µM (inactive) | – | > 100 µM (inactive) | > 100 µM (inactive) | > 100 µM (inactive) | > 100 µM (inactive) | > 100 µM (inactive) | > 100 µM (inactive) | > 100 µM (inactive) | > 100 µM (inactive) | > 100 µM (inactive) | 81.8 µM (inactive) | > 100 µM (inactive) | > 100 µM (inactive) | > 100 µM (inactive) | > 100 µM (inactive) | > 100 µM (inactive) | > 100 µM (inactive) | > 100 µM (inactive)
7 | COc1ccc(/C=C/C(=O)NCC(NC(=O)/C=C/c2ccc(OC)c(OC)c2)C(=O)O)cc1OC (configuration not stated) | > 100 µM (inactive) | > 100 µM (inactive) | > 100 µM (inactive) | > 100 µM (inactive) | 0.0163 µM (active) | > 100 µM (inactive) | > 100 µM (inactive) | > 100 µM (inactive) | > 100 µM (inactive) | > 100 µM (inactive) | – | > 100 µM (inactive) | > 100 µM (inactive) | > 100 µM (inactive) | > 100 µM (inactive) | > 100 µM (inactive) | > 100 µM (inactive) | > 100 µM (inactive) | > 100 µM (inactive) | > 100 µM (inactive)
